# According to the OPERA property sets (Mansouri et al. 2018):
# Details: not given
row,Structure (SMILES),solubility
1,O=P(O)(O)c1cccc2ccccc12,24 mM
2,CCOC(CC(C)O)OCC (stereo not drawn),1230 mM
3,Oc1ccc(-c2ccccc2)cc1O,8.59 mM
4,CCCc1cc(F)ccc1O,13 mM
5,O=C(c1ccccc1)N(O)c1cccc2ccccc12,0.494 mM
6,CC12CCC(C(CO)C1=O)C2(C)C (stereo not drawn),610 mM
7,Cn1c(C(N)=O)c(C(N)=O)c2ccccc21,15.2 mM
8,CCCC(Br)C(=O)NC(N)=O (stereo not drawn),37.3 mM
9,COc1ccc(OC)c([N+](=O)[O-])c1,0.764 mM
10,CCCCCc1ccc(O)cc1O,11.1 mM
11,CCCCOC(=O)CCO,51.3 mM
12,CC(NC(=O)C=CC(=O)O)C(=O)O (stereo not drawn),107 mM
13,COc1ccc(NC(=N)Nc2ccc(OC)cc2)cc1,1.84 mM
14,NC(CO)C(=O)N[C@@H](CO)C(=O)O (stereo in doubt),260 mM
15,Cc1nc2c(c(=O)[nH]c(=O)n2C)n1C,286 mM
16,CCSS(=O)CC (stereo not drawn),796 mM
17,C=CCc1ccc(OCC(=O)O)c(OC)c1,5.27 mM

# Same assay, conditions: 20 °C
row,Structure (SMILES),solubility
1,NC(=O)NN=C1CCCCC1,38.7 mM
2,c1ncc2n[nH]nc2n1,586 mM
3,S=c1[nH]sc(=S)[nH]1,17.3 mM
4,CCCCCCC(O)C(O)C(=O)O (stereo not drawn),28.4 mM
5,Cc1nc(C)c(C(=O)O)cc1C(=O)O,1.55 mM
6,O=C(O)c1ccccc1C(=O)c1ccc(Cl)cc1,1.92 mM
7,CC1CCC2(CCC(C)O2)O1 (stereo not drawn),356 mM
8,C=CCCN=C=S,4.06 mM
9,CC(C#N)(CCC(=O)O)/N=N/C(C)(C#N)CCC(=O)O (stereo not drawn),9.81 mM
10,N#Cc1ccc(C(=O)O)cc1,8.16 mM
11,CC(C)Cc1nnc(NS(=O)(=O)c2ccc(N)cc2)s1,0.15 mM
12,CCC(C#N)(CC)C(=O)NC(N)=O,27.3 mM
13,O=C(O)c1c(Cl)c(Cl)c(Cl)c(Cl)c1C(=O)O,11.8 mM
14,Oc1cnc2ccccc2c1,4.05 mM
15,O=c1ccc(I)c[nH]1,18.1 mM
16,Cn1cc2nccnc2nc1=O,123 mM
17,CC(=O)C(=O)c1ccccc1,17.5 mM
18,CC(C)(NC(N)=O)C(=O)O,68.4 mM
19,Cc1nc2cncnc2n(C)c1=O,32.4 mM
20,COc1ccc(CO)cc1,14.5 mM
21,CN[C@@H](Cc1ccc(O)cc1)C(=O)O,7.37 mM
22,CCCc1nnc(NS(=O)(=O)c2ccc(N)cc2)s1,0.493 mM
23,COC[C@@H](N)C(=O)O (racemic),4490 mM
24,Brc1ccc2c(c1)Sc1ccccc1N2,0.000773 mM
25,Cc1nc2c(=O)[nH]c(=O)n(C)c2nc1C,7.71 mM
26,Cc1cc(C)c(OCC(=O)O)c(Br)c1,0.753 mM
27,CCCCCS,1.5 mM

# Same assay, conditions: 21 °C
row,Structure (SMILES),solubility
1,NC(=S)NCNC(N)=S,21.3 mM
2,CC(=O)N[C@@H](Cc1c[nH]c2ccccc12)C(=O)O (racemic),4.87 mM
3,NC(N)=N/C(N)=N/c1ccc2ccccc2c1,2.82 mM

# Same assay, conditions: 23 °C
row,Structure (SMILES),solubility
1,CC(=O)C1(C)CO1 (stereo not drawn),2400 mM
2,NC(=S)NNC(N)=S,16 mM
3,CC(C)C(=O)Oc1ccc([N+](=O)[O-])cc1,0.11 mM
4,O=C(O)c1ccccc1C1OC(=O)c2ccccc21 (stereo not drawn),0.787 mM
5,NC(=O)N/N=C/[C@H](O)[C@@H](O)[C@@H](O)[C@H](O)CO,222 mM
6,CCC(C(=O)O)C(CC)C(=O)O (stereo not drawn),69.5 mM
7,NC(=O)C[C@H](NC(N)=O)C(=O)O,308 mM

# Same assay, conditions: 24 °C
row,Structure (SMILES),solubility
1,Cc1ccc(S(N)(=O)=O)cc1N,12.1 mM

# Same assay, conditions: 25 °C
row,Structure (SMILES),solubility
1,O=P(Oc1ccccc1)(Oc1ccccc1)N1CCOCC1,7.2 mM
2,ON=C1CCCCCCCCC1=NO,2.62 mM
3,c1ccc(-c2cccnc2)nc1,256 mM
4,COC(C)C(NC=O)C(=O)O (racemic),242 mM
5,O=C(O)c1cccc(C(=O)O)c1[N+](=O)[O-],10.2 mM
6,CCCS,25 mM
7,CCC(C)(C)C1CCC(=NO)C(=NO)C1 (stereo not drawn),0.108 mM
8,C=CCOC(=O)C(C)OC(=O)C(C)O (stereo not drawn),208 mM
9,CC(=O)Oc1ccccc1/C=C/C(=O)O,0.698 mM
10,ON=C1CCCCCC1=NO,37.6 mM
11,CCOCCC(=O)OC,847 mM
12,CC(C)CC(=O)Oc1ccc([N+](=O)[O-])cc1,0.0403 mM
13,CC1CCC(=NO)C(=NO)C1 (stereo not drawn),21.8 mM
14,CCCCOP(=O)(CCCC)CCCC,19.2 mM
15,CCCCC(C)C(C)O (stereo not drawn),8.75 mM
16,Cc1ccccc1N(C)C(N)=O,395 mM

row,Structure (SMILES),solubility
1,CCCC(C)C(O)CC (stereo not drawn),10.9 mM
2,C[Si](C)(O)O[Si](C)(C)O,661 mM
3,CCc1c[nH]c(=O)[nH]c1=O,11.4 mM
4,CC(C)C[C@H](N)C(=O)N[C@H](CCC(N)=O)C(=O)O,27 mM
5,O=c1ccccc(Br)c1O,3.67 mM
6,O=C(NC(=O)c1cccnc1)Nc1ccccc1,0.414 mM
7,O=C(O)CNC(=S)SCC(=O)O,50 mM
8,Cc1c(Cl)c(O)c(Cl)c(Cl)c1Cl,0.025 mM
9,CCCC[C@H](O)C(C)C,15.4 mM
10,C[C@H](O)C(F)(F)F,2040 mM
11,O=C(O)c1cccs1,58.5 mM
12,N#CNC(N)=S,989 mM
13,CCc1nc2c(c(=O)n(C)c(=O)n2C)n1C,27 mM
14,O=[N+]([O-])c1cc([N+](=O)[O-])c(-c2ccccc2)cc1O,0.0346 mM
15,O=C(O)C(=O)Nc1ccc(Cl)cc1Cl,5.29 mM
16,CCC(=O)OC(C)C(=O)OC (stereo not drawn),137 mM

# Same assay, conditions: 26 °C
row,Structure (SMILES),solubility
1,N#CCCN(CCC#N)[C@@H](CCC(=O)O)C(=O)O,592 mM

# Same assay, conditions: 27 °C
row,Structure (SMILES),solubility
1,c1ccc2c(c1)-c1cccc3cc4c(ccc5ccccc54)c-2c13,3.31e-06 mM

# Same assay, conditions: 30 °C
row,Structure (SMILES),solubility
1,CCCOc1ccc(NC(C)=O)cc1,0.88 mM
2,CN(C)C(=O)c1ccccc1C(=O)N(C)C,3220 mM
3,CCCCCCOC(=O)c1ccc(O)cc1,0.112 mM
4,COC(=O)c1ccc(O)c(Cl)c1,1.34 mM
